Test results taken from patent publication US9808512B2, “Anti-cell proliferative compounds and methods of use” (KALOS Therapeutics, priority 2007, dated 2017).
Where “and” joins values, the source holds several entries; their conditions need not be identical. Equal values may be shown once. Entries after “also recorded” stand apart in the source; their conditions may differ.

What was measured:
[1] = test system: Human Pancreatic Adenocarcinoma Cells (HPAC); test: HPAC cell viability, Calbiochem Rapid Cell Proliferation Kit, optical density at 450 nm; assay type: cell-based; conditions: 48 hours; for Optical Densities in 96_Well Plate, Average: average of 5 replicate wells; for Optical Densities in 96_Well Plate: single replicate wells
Method: Human Pancreatic Adenocarcinoma Cells (HPAC) cells were obtained from ATCC and propagated in Dulbecco's modified Eagle's medium and Ham's F12 medium (DME-F12) (1:1) containing 2.5 mM glutamine, […], 5 ug/mL transferrin, 1 ng/mL EGF (epidermal growth factor), plus 5% FBS (fetal bovine serum). Cell cultures were incubated at 37° C., 5% CO2 in a 100% humidity atmosphere. The cells were routinely brought to confluence in T-flasks, rinsed with phosphate buffered saline (PBS), and treated with trypsin for 5 min at room temp. The trypsinized cells were rinsed from the plate with 10 mL medium and counted. Viability at subculturing was generally ≧95%.
Approximately 10,000 cells in 100 uL of medium were placed in each well of a 96-well plate and incubated over night. Peptides having the following sequences were used: Arg-15-Cys (RSSCAGAALSPLGAC; SEQ. ID NO:122); Pro-15-Val (PNEEAGAALSPLPEV; SEQ. ID NO:121); Ala-8-Leu (AGAALSPL; SEQ. ID NO:85); C-ANP 4-23 ([…]; SEQ. ID NO:124) and, VDL ([…]; SEQ. ID NO:125). The peptides were dissolved in PBS and sterile filtered. The peptides were diluted into the cell culture medium to the following final concentrations: 1, 0.3, 0.1, 0.03, and 0.01 uM. Each peptide was tested in 5 replicate wells. The cultures were incubated for an additional 48 hours at 37° C.
The viability of the cells was determined using a Calbiochem Rapid Cell Proliferation Kit (catalog number QIA127). Ten uL of Calbiochem color reagent was added to each well and incubated for an additional 1.5 hours at 37° C. Optical densities were read at 450 nm using a Molecular Devices ThermoMax microplate reader. The plate template is shown in Table I (unlabeled wells contained cells but no peptide and were used as blanks). Results are presented in Table I, and are graphically illustrated in FIGS. 1 and 2.

NPRA = target: T1, NPRA (Homo sapiens, UniProt P16066); conditions: cited from earlier work
T1 sequence (P16066 33-1061): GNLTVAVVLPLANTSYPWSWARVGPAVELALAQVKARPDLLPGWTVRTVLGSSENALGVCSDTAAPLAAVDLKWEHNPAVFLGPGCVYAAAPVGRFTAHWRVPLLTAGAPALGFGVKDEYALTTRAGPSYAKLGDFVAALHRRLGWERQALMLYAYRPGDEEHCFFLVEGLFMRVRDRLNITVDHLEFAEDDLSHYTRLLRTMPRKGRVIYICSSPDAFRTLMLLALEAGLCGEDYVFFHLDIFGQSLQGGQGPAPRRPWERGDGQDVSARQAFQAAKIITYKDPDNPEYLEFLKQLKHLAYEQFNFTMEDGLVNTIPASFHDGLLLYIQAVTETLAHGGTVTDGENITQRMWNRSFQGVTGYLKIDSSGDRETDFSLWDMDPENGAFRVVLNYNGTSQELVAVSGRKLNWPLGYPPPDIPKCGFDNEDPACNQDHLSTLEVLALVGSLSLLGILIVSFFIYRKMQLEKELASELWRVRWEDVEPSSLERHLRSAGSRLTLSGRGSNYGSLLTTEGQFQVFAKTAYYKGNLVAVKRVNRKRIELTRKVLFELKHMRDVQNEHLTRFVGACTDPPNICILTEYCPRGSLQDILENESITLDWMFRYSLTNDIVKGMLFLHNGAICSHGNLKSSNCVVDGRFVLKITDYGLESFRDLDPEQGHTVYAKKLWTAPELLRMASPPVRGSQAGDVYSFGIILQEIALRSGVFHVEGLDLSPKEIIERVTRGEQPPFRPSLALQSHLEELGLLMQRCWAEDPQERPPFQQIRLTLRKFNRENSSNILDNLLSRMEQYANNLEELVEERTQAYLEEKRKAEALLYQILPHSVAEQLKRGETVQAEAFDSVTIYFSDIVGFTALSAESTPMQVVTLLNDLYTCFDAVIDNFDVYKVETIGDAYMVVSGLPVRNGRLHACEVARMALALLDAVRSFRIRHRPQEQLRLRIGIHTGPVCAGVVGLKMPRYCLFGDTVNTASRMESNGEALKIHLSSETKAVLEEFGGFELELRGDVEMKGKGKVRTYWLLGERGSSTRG

cancer cells = conditions: known natriuretic peptides; cited from earlier work
NPRC = target: T2, NPRC (Homo sapiens, UniProt P17342); conditions: cited from earlier work
T2 sequence (P17342 27-541): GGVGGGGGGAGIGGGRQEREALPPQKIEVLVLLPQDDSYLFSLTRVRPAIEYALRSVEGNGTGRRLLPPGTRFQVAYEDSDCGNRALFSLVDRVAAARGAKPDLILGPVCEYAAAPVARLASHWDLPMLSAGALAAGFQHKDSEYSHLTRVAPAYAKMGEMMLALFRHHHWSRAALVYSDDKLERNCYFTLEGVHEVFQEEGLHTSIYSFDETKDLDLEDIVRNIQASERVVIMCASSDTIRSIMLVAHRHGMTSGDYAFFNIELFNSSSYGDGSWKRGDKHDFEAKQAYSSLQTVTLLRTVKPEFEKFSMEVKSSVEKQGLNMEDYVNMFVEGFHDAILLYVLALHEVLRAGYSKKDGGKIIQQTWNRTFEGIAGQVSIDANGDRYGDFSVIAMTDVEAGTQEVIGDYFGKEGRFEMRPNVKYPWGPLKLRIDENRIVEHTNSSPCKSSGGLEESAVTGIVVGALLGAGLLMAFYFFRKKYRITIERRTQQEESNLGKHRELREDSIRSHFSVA

With PNEEAGAALSPLPEV [Pro-15-Val, ID NO:121] the “Optical Densities in 96_Well Plate, Average” value (“Optical Densities … Average” below) ([1]; peptide 0.01 μM) was 0.916, the “Optical Densities in 96_Well Plate” value ([1]; peptide 0.01 μM) was 0.907 and 0.905 and 0.633 and 1.209 and 0.928 and the “Optical Densities … Average” value ([1]; peptide 0.03 μM) was 0.894. The “Optical Densities in 96_Well Plate” value ([1]; peptide 0.03 μM) was 0.892 and 0.765 and 0.693 and 1.151 and 0.970, the “Optical Densities … Average” value ([1]; peptide 0.1 μM) was 0.918 and the “Optical Densities in 96_Well Plate” value ([1]; peptide 0.1 μM) was 0.680 and 0.895 and 0.893 and 1.156 and 0.964. For the same substance, the “Optical Densities … Average” value ([1]; peptide 0.3 μM) was 0.916, the “Optical Densities in 96_Well Plate” value ([1]; peptide 0.3 μM) was 0.875 and 0.817 and 0.855 and 1.024 and 1.010 and the “Optical Densities … Average” value ([1]; peptide 1.0 μM) was 0.948. For the same substance, the “Optical Densities in 96_Well Plate” value ([1]; peptide 1.0 μM) was 0.856 and 0.752 and 0.802 and 1.083 and 1.248.
For RSSCAGAALSPLGAC [Arg-15-Cys, ID NO:122], the “Optical Densities … Average” value ([1]; peptide 0.01 μM) was 0.934, the “Optical Densities in 96_Well Plate” value ([1]; peptide 0.01 μM) was 0.974 and 0.920 and 0.863 and 0.840 and 1.075 and the “Optical Densities … Average” value ([1]; peptide 0.03 μM) was 0.982. For the same substance, the “Optical Densities in 96_Well Plate” value ([1]; peptide 0.03 μM) was 1.093 and 0.894 and 0.789 and 0.955 and 1.178, the “Optical Densities … Average” value ([1]; peptide 0.1 μM) was 0.950 and the “Optical Densities in 96_Well Plate” value ([1]; peptide 0.1 μM) was 1.016 and 0.917 and 0.801 and 0.990 and 1.025. The “Optical Densities … Average” value ([1]; peptide 0.3 μM) was 0.897, the “Optical Densities in 96_Well Plate” value ([1]; peptide 0.3 μM) was 0.988 and 0.957 and 0.668 and 0.913 and 0.959 and the “Optical Densities … Average” value ([1]; peptide 1.0 μM) was 0.962. The “Optical Densities in 96_Well Plate” value ([1]; peptide 1.0 μM) was 1.155 and 1.005 and 0.787 and 0.944 and 0.919.
For AGAALSPL [Ala-8-Leu, ID NO:85], the “Optical Densities … Average” value ([1]; peptide 0.01 μM) was 0.937, the “Optical Densities in 96_Well Plate” value ([1]; peptide 0.01 μM) was 0.744 and 0.878 and 1.000 and 0.892 and 1.169 and the “Optical Densities … Average” value ([1]; peptide 0.03 μM) was 0.976. The “Optical Densities in 96_Well Plate” value ([1]; peptide 0.03 μM) was 0.892 and 0.937 and 0.989 and 0.921 and 1.139, the “Optical Densities … Average” value ([1]; peptide 0.1 μM) was 0.991 and the “Optical Densities in 96_Well Plate” value ([1]; peptide 0.1 μM) was 0.832 and 1.006 and 1.031 and 0.910 and 1.174. The “Optical Densities … Average” value ([1]; peptide 0.3 μM) was 1.002, the “Optical Densities in 96_Well Plate” value ([1]; peptide 0.3 μM) was 0.784 and 0.802 and 0.998 and 1.357 and 1.070 and the “Optical Densities … Average” value ([1]; peptide 1.0 μM) was 0.985. The “Optical Densities in 96_Well Plate” value ([1]; peptide 1.0 μM) was 0.732 and 1.216 and 0.954 and 0.834 and 1.189.
For “ANP: Natriuretic peptide; Table III sequence SLRRSSCFGGRMDRIGAQSGLGCNSFRY, SEQ ID NO:126 [reference compound]”, the “Optical Densities … Average” value ([1]; peptide 0.01 μM) was 0.908, the “Optical Densities in 96_Well Plate” value ([1]; peptide 0.01 μM) was 0.981 and 0.815 and 0.822 and 0.965 and 0.955 and the “Optical Densities … Average” value ([1]; peptide 0.03 μM) was 0.935. For the same substance, the “Optical Densities in 96_Well Plate” value ([1]; peptide 0.03 μM) was 0.948 and 0.882 and 0.911 and 0.951 and 0.982, the “Optical Densities … Average” value ([1]; peptide 0.1 μM) was 0.838 and the “Optical Densities in 96_Well Plate” value ([1]; peptide 0.1 μM) was 0.884 and 0.889 and 0.907 and 0.862 and 0.650. For the same substance, the “Optical Densities … Average” value ([1]; peptide 0.3 μM) was 0.974, the “Optical Densities in 96_Well Plate” value ([1]; peptide 0.3 μM) was 1.001 and 0.889 and 0.837 and 0.934 and 1.209 and the “Optical Densities … Average” value ([1]; peptide 1.0 μM) was 0.914. The “Optical Densities in 96_Well Plate” value ([1]; peptide 1.0 μM) was 1.018 and 0.819 and 0.954 and 0.829 and 0.951, the “binding affinity at NPRA” value (NPRA) was “higher binding affinities” and the “anticancer activity / relative potency” value (cancer cells) was “greater potency observed for ANP than CNP; also recorded: have anticancer activity”. For the same substance, the “binding affinity at NPRC” value (NPRC) was “higher binding affinities”.
For “RSSCFGGRIDRIGAC [C-ANP 4-23, ID NO:124, reference compound]”, the “Optical Densities … Average” value ([1]; peptide 0.01 μM) was 0.938, the “Optical Densities in 96_Well Plate” value ([1]; peptide 0.01 μM) was 0.877 and 0.971 and 0.953 and 0.932 and 0.958 and the “Optical Densities … Average” value ([1]; peptide 0.03 μM) was 0.932. For the same substance, the “Optical Densities in 96_Well Plate” value ([1]; peptide 0.03 μM) was 0.905 and 0.882 and 0.981 and 0.948 and 0.943, the “Optical Densities … Average” value ([1]; peptide 0.1 μM) was 0.942 and the “Optical Densities in 96_Well Plate” value ([1]; peptide 0.1 μM) was 0.758 and 1.027 and 0.983 and 0.960 and 0.982. The “Optical Densities … Average” value ([1]; peptide 0.3 μM) was 0.942, the “Optical Densities in 96_Well Plate” value ([1]; peptide 0.3 μM) was 0.840 and 0.928 and 1.035 and 0.975 and 0.932 and the “Optical Densities … Average” value ([1]; peptide 1.0 μM) was 0.925. For the same substance, the “Optical Densities in 96_Well Plate” value ([1]; peptide 1.0 μM) was 0.865 and 0.925 and 0.900 and 0.955 and 0.981 and the “anticancer activity / relative potency” value (cancer cells) was “have anticancer activity”.
For “EVVPPQVLSEPNEEAGAALSPLPEVPPWTGEVSPAQR [KT-220 (VDL), ID NO:125]”, the “anticancer activity / relative potency” value (cancer cells) is given as “have anticancer activity”.
